Holding throughout (assay type): biochemical
One test addresses CDK1/CCNB1 (Homo sapiens, UniProt P06493). The test can be described thus: CDK1 homogeneous time-resolved fluorescence (HTRF) kinase assay. The following applies: CDK1/CCNB; >250 nM marked x; read-out: CDK1/CCNB IC50 >250 nM. The essentials:
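Read-out: TR-FRET (Eu anti-phospho-4E-BP1 Thr37/46 antibody, 2 nM; 665 nm or 665/615 ratio) after 60 min phosphorylation of 50 nM ULight-peptide by 0.5 nM CDK1/CCNB1 at 1 mM ATP, 23 °C. Compound preincubated 20 min with enzyme; 1% DMSO.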

Another test addresses CDK4/CCND3 (Homo sapiens, UniProt P11802). Nature of the test: CDK4 homogeneous time-resolved fluorescence (HTRF) kinase assay. The following applies: CDK4/CCND; >250 nM marked x; read-out: CDK4/CCND IC50 >250 nM. An outline of the steps:
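TR-FRET read (665 nm, or 665/615 ratio) of 4E-BP1 Thr37/46 phosphorylation by 1.5 nM CDK4/CCND3 at 1 mM ATP, 50 nM ULight peptide, 1% DMSO. Reaction ran 60 min at 23 °C after 20 min compound–enzyme preincubation. IC50 from 11-point half-log dilutions, top 10 μM.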

A further test concerns the target CDK6/CCND1 (Homo sapiens, UniProt Q00534). The test can be described thus: CDK6 homogeneous time-resolved fluorescence (HTRF) kinase assay. Conditions: CDK6/CCND; >250 nM marked x; read-out: CDK6/CCND IC50 >250 nM. The essentials: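 Assay conditions: HEPES buffer containing 10 mM MgCl2, 1 mM EGTA, 2 mM DTT, 0.01% Tween 20; 1 nM CDK6/CCND1, 50 nM peptide substrate, 1 mM ATP. Detection after 60 min reaction used 2 nM europium antibody with 340 nm excitation. Potency fitted from half-log series, 11 points.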
For orientation: In TR-FRET formats the signal depends on donor and acceptor labels being close together.

For another test, the target named is CDK2/CCNE1 (Homo sapiens, UniProt P24941). Nature of the test: CDK2 homogeneous time-resolved fluorescence (HTRF) kinase assay. Conditions: CDK2/CCNE. The essentials: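 TR-FRET read-out (665 nm, or 665/615 ratio) of Eu-antibody detection of phospho-4E-BP1 (Thr37/46) ULight peptide. Enzyme 3 nM, ATP 1 mM, peptide 50 nM, 1% DMSO; 60 min reaction at 23 °C after 20 min compound preincubation. IC50 from 11-point half-log titrations, top typically 10 μM.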

[1] abbreviates: <25 nM, read-out: CDK2/CCNE IC50 <25 nM.
The mark [2] stands for this setting: >250 nM marked x, read-out: CDK2/CCNE IC50 >250 nM.
[3] abbreviates: 25-250 nM marked x, read-out: CDK2/CCNE IC50 25-250 nM.

Each structure is given as a SMILES string. Where two headings read alike, the source gives them in different places.

Sequence of CDK1/CCNB1 (P06493 whole entry): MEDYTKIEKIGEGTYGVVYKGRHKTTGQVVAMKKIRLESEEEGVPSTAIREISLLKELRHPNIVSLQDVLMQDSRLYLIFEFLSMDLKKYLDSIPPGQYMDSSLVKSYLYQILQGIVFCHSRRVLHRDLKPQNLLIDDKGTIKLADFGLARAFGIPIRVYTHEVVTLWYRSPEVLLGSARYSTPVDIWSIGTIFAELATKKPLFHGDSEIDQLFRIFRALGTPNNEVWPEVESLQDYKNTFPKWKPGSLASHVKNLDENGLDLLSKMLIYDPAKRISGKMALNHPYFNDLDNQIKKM
Sequence of CDK1/CCNB1 (P14635 whole entry partner): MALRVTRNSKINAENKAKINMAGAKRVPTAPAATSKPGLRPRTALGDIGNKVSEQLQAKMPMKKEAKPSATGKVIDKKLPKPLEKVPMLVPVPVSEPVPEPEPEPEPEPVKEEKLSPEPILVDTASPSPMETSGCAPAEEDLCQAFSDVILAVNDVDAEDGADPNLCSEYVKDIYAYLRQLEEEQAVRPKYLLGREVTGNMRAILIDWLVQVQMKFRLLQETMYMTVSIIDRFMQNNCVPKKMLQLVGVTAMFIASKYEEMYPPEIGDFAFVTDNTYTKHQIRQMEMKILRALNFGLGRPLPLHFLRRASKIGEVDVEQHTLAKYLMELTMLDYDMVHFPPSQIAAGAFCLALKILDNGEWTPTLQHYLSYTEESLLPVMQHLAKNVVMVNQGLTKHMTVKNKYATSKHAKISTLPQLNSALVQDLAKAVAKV
Sequence of CDK6/CCND1 (Q00534 whole entry): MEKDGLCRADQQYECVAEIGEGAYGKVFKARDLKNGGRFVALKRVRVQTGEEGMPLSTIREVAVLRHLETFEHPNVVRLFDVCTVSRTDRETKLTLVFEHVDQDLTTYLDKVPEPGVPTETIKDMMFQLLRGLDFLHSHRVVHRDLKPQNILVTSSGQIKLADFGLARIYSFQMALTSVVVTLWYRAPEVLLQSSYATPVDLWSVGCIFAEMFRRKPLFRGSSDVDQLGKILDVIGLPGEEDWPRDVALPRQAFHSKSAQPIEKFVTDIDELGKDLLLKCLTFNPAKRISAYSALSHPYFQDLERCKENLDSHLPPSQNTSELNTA
Sequence of CDK6/CCND1 (P24385 whole entry partner): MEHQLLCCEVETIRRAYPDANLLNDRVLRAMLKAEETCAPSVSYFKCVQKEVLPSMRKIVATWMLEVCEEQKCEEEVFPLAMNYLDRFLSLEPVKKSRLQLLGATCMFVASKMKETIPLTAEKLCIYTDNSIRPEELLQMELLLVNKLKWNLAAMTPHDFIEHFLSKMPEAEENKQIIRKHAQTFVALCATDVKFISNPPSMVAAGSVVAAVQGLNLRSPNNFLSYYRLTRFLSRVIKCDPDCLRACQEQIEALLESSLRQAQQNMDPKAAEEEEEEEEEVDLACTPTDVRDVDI
Sequence of CDK4/CCND3 (P11802 whole entry): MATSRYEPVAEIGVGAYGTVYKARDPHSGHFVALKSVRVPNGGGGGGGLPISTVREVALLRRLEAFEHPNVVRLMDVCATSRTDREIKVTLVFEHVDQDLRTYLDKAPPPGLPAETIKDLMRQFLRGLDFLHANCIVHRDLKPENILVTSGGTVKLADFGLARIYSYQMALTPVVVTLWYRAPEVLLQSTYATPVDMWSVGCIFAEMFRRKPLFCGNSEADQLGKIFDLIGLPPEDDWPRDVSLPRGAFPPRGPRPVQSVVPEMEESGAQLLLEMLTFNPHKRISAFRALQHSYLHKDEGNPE
Sequence of CDK4/CCND3 (P30281 whole entry partner): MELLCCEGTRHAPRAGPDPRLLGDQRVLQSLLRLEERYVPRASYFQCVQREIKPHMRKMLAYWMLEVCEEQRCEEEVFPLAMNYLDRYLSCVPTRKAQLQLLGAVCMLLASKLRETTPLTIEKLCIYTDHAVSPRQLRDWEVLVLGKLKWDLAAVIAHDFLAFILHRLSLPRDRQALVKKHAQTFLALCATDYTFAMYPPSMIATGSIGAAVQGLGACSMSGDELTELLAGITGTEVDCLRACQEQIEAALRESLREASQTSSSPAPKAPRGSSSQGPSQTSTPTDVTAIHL

Turning to `COc1cc(S(=N)(=O)C2CC2)ccc1Nc1cc2c(C#Cc3ccc4c(c3)NC(=O)C43CC3)nccc2cn1` (single isomer, unassigned) [Ex 278, 6'-((7-((4-(cyclopropanesulfonimidoyl)-2-methoxyphenyl)amino)-2,6-naphthyridin-1-yl)ethynyl)spiro[cyclopropane-1,3'-indolin]-2'-one], the IC50 is greater than 250 nM on CDK1/CCNB1, greater than 250 nM at CDK4/CCND3, greater than 250 nM on CDK6/CCND1 and less than 25 nM on CDK2/CCNE1 (setting [1]).

As to `CCC1(CC)C(=O)Nc2cc(C#Cc3nccc4cnc(Nc5ccc(S(=N)(=O)CC(F)(F)F)cc5OC)cc34)ccc21` (single isomer, unassigned) [Ex 281, 3,3-diethyl-6-((7-((2-methoxy-4-(2,2,2-trifluoroethylsulfonimidoyl)phenyl)amino)-2,6-naphthyridin-1-yl)ethynyl)indolin-2-one], the IC50 at CDK1/CCNB1, at CDK4/CCND3, on CDK6/CCND1 and at CDK2/CCNE1 (setting [2]) was greater than 250 nM each time.

On to `CCC1(CC)C(=O)Nc2cc(C#Cc3nccc4cnc(Nc5ccc(S(=N)(=O)CC(F)(F)F)cc5C)cc34)ccc21` (single isomer, unassigned) [Ex 284, 3,3-diethyl-6-((7-((2-methyl-4-(2,2,2-trifluoroethylsulfonimidoyl)phenyl)amino)-2,6-naphthyridin-1-yl)ethynyl)indolin-2-one], for which the IC50 was greater than 250 nM on CDK1/CCNB1, greater than 250 nM at CDK4/CCND3, greater than 250 nM on CDK6/CCND1 and 25 to 250 nM at CDK2/CCNE1 (setting [3]).

For the molecule `CCS(=N)(=O)c1ccc(Nc2cc3c(C#Cc4ccc5c(c4)NC(=O)C54CC4)nccc3cn2)c(OC)c1` (single isomer, unassigned) [Ex 289, 6'-((7-((4-(ethylsulfonimidoyl)-2-methoxyphenyl)amino)-2,6-naphthyridin-1-yl)ethynyl)spiro[cyclopropane-1,3'-indolin]-2'-one], the IC50 at CDK1/CCNB1 was greater than 250 nM; at CDK4/CCND3 it was greater than 250 nM; on CDK6/CCND1, greater than 250 nM; on CDK2/CCNE1 (setting [1]), less than 25 nM.

Regarding `CCC1(CC)C(=O)Nc2cc(C#Cc3nccc4cnc(Nc5ccc(S(C)(=N)=O)cc5C(F)F)cc34)ccc21` (single isomer, unassigned) [Ex 294, 6-((7-((2-(difluoromethyl)-4-(S-methylsulfonimidoyl)phenyl)amino)-2,6-naphthyridin-1-yl)ethynyl)-3,3-diethylindolin-2-one], the IC50 on CDK1/CCNB1 was greater than 250 nM; at CDK4/CCND3, greater than 250 nM; on CDK6/CCND1, greater than 250 nM; at CDK2/CCNE1 (setting [3]), 25 to 250 nM.

On to `CCC1(CC)C(=O)Nc2cc(C#Cc3nccc4cnc(Nc5ccc(S(=N)(=O)C6CC6)cc5OC)cc34)ccc21` (single isomer, unassigned) [Ex 299, 6-((7-((4-(cyclopropanesulfonimidoyl)-2-methoxyphenyl)amino)-2,6-naphthyridin-1-yl)ethynyl)-3,3-diethylindolin-2-one], for which the IC50 on CDK1/CCNB1 was greater than 250 nM; at CDK4/CCND3, greater than 250 nM; at CDK6/CCND1 it was greater than 250 nM; at CDK2/CCNE1 (setting [3]), 25 to 250 nM.

For `CCC1(CC)C(=O)Nc2cc(C#Cc3nccc4cnc(Nc5ccc(S(=N)(=O)C6CC(F)(F)C6)cc5F)cc34)ccc21` (single isomer, unassigned) [Ex 301, 6-((7-((4-(3,3-difluorocyclobutane-1-sulfonimidoyl)-2-fluorophenyl)amino)-2,6-naphthyridin-1-yl)ethynyl)-3,3-diethylindolin-2-one], the IC50 on CDK1/CCNB1, at CDK4/CCND3, at CDK6/CCND1 and on CDK2/CCNE1 (setting [2]) was greater than 250 nM each time.

On to `CCC1(CC)C(=O)Nc2cc(C#Cc3nccc4cnc(Nc5ccc(S(=N)(=O)C6CC(F)(F)C6)cc5)cc34)ccc21` (single isomer, unassigned) [Ex 303, 6-((7-((4-(3,3-difluorocyclobutane-1-sulfonimidoyl)phenyl)amino)-2,6-naphthyridin-1-yl)ethynyl)-3,3-diethylindolin-2-one], for which the IC50 on CDK1/CCNB1 is greater than 250 nM; at CDK4/CCND3 it was greater than 250 nM; on CDK6/CCND1 it was greater than 250 nM; at CDK2/CCNE1 (setting [3]) it was 25 to 250 nM.
